Columns and labels:
Assay type in all cases: in vivo
[1] = tested on: Winter wheat; assay: Post-emergence herbicidal test, young pot plants (Example 33); parameters: key: 0 = 0-20% damage, 5 = complete kill, vs untreated control; conditions: 2.0 kg/ha, after 14 days
Description: (§1) The compounds were formulated for test by mixing an appropriate amount with 5 ml of an emulsion prepared by diluting 160 ml of a solution containing 21.S g per litre of "Span" 80 and 78.2 g per litre of "Tween" 20 in methylcyclohexanone to 500 ml with water. "Span" 80 is a Trade Mark for a surface-active agent comprising sorbitan monolaurate. "Tween" 20 is a Trade Mark for a surface-active agent comprising a condensate of sorbitan monolaurate with 20 molar proportions of ethylene oxide. Each 5 ml emulsion containing a test compound was'then diluted to 40 ml with water and sprayed on to young pot plants (post-emergence test) of the species named in Table 5 below. Damage to test plants was assessed after 14 days on a scale of 0 to 5 where 0 is 0 to 20% damage and 5 is complete kill. In a test for pre-emergence herbicidal activity, seeds of the test plants were sown in a shallow slit formed in the surface of soil in fibre trays. The surface was then levelled and sprayed, and fresh soil then spread thinly over the sprayed surface. Assessment of herbicidal damage was carried out after 21 days using the same scale of 0 to 5 as the post-emergence test. In both cases the degree of herbicidal damage was assessed by comparison with untreated control plants. A dash (-) means that no experiment was carried out.

[2] = tested on: Maize; assay: as above; conditions: 2.0 kg/ha, after 14 days
Description: as §1

[3] = tested on: Rice; assay: as above; conditions: 2.0 kg/ha, after 14 days
Description: as §1

[4] = tested on: Rape; assay: Pre-emergence herbicidal test, fibre trays (Example 33); conditions: 2.0 kg/ha, after 21 days
Description: as §1

[5] = tested on: Cotton; assay: as above; conditions: 2.0 kg/ha, after 21 days
Description: as §1

[6] = tested on: Chenopodium album; assay: as above; conditions: 2.0 kg/ha, after 21 days
Description: as §1

[7] = tested on: Winter wheat; assay: as above; conditions: 2.0 kg/ha, after 21 days
Description: as §1

[8] = tested on: Sugar beet; assay: as above; conditions: 2.0 kg/ha, after 21 days
Description: as §1

[9] = tested on: Amaranthus retroflexus; assay: as above; conditions: 2.0 kg/ha, after 21 days
Description: as §1

[10] = tested on: Ipomea purpurea; assay: as above; conditions: 2.0 kg/ha, after 21 days
Description: as §1

[11] = tested on: Senecio vulgaris; assay: as above; conditions: 2.0 kg/ha, after 21 days
Description: as §1

[12] = tested on: Polygonum aviculare; assay: as above; conditions: 2.0 kg/ha, after 21 days
Description: as §1

[13] = tested on: Soy bean; assay: as above; conditions: 2.0 kg/ha, after 21 days
Description: as §1

[14] = tested on: Rice; assay: as above; conditions: 2.0 kg/ha, after 21 days
Description: as §1

[15] = tested on: Rape; assay: Post-emergence herbicidal test, young pot plants (Example 33); conditions: 2.0 kg/ha, after 14 days
Description: as §1

[16] = tested on: Cotton; assay: as above; conditions: 2.0 kg/ha, after 14 days
Description: as §1

[17] = tested on: Chenopodium album; assay: as above; conditions: 2.0 kg/ha, after 14 days
Description: as §1

[18] = tested on: Sugar beet; assay: as above; conditions: 2.0 kg/ha, after 14 days
Description: as §1

[19] = tested on: Amaranthus retroflexus; assay: as above; conditions: 2.0 kg/ha, after 14 days
Description: as §1

[20] = tested on: Ipomea purpurea; assay: as above; conditions: 2.0 kg/ha, after 14 days
Description: as §1

[21] = tested on: Polygonum aviculare; assay: as above; conditions: 2.0 kg/ha, after 14 days
Description: as §1

[22] = tested on: Soy bean; assay: as above; conditions: 2.0 kg/ha, after 14 days
Description: as §1

[23] = tested on: Maize; assay: Pre-emergence herbicidal test, fibre trays (Example 33); parameters: key: 0 = 0-20% damage, 5 = complete kill, vs untreated control; conditions: 2.0 kg/ha, after 21 days
Description: as §1

COC(=O)C(C)Oc1ccc(Nc2ccc(C(F)(F)F)cc2[N+](=O)[O-])cc1Cl (centres unmarked) [Compound 116]
damage to test plants, Ww [1]: 4
damage to test plants, Mz [2]: 4
damage to test plants, Rc [3]: 4
herbicidal damage, Rp [4]: 0 (0 is 0 to 20% damage)
herbicidal damage, Ct [5]: 0 (0 is 0 to 20% damage)
herbicidal damage, Ca [6]: 0 (0 is 0 to 20% damage)
herbicidal damage, Ww [7]: 4
herbicidal damage, Sb [8]: 0 (0 is 0 to 20% damage)
herbicidal damage, Am [9]: 0 (0 is 0 to 20% damage)
herbicidal damage, Ip [10]: 0 (0 is 0 to 20% damage)
herbicidal damage, Sn [11]: 0 (0 is 0 to 20% damage)
herbicidal damage, Pi [12]: 0 (0 is 0 to 20% damage)
herbicidal damage, Sy [13]: 0 (0 is 0 to 20% damage)
herbicidal damage, Rc [14]: 4
damage to test plants, Rp [15]: 0 (0 is 0 to 20% damage)
damage to test plants, Ct [16]: 0 (0 is 0 to 20% damage)
damage to test plants, Ca [17]: 0 (0 is 0 to 20% damage)
damage to test plants, Sb [18]: 3
damage to test plants, Am [19]: 0 (0 is 0 to 20% damage)
damage to test plants, Ip [20]: 0 (0 is 0 to 20% damage)
damage to test plants, Pi [21]: 0 (0 is 0 to 20% damage)
damage to test plants, Sy [22]: 0 (0 is 0 to 20% damage)
herbicidal damage, Mz [23]: 3

From patent EP0013144A1, “Substituted diphenylamine derivatives, compositions and herbicidal uses thereof, and processes for their preparation” (ICI AUSTRALIA LIMITED, priority 1978, dated 1980)
